For assay [1], the system named is castrated male rat (ORX): levator ani muscle and prostate. Kind of assay: Castrated male rat model (ORX rat). The settings on record: for prostate sparing: defined as at least a 2:1 ratio of levator ani ED50 to prostate ED50; for levator ani hypertrophy: favorable = 30% or greater increase in levator ani weight vs vehicle-treated castrates, dosed orally at up to 10 mg/kg/day. Type of assay: in vivo. The source says:
Castrated Male Rat Model (ORX Rat)
The activity of the compounds of the present invention as modulators of the androgen receptor was investigated using a castrated male rat model (ORX) as described in C. D. Kockakian, Pharmac. Therap. B 1(2), 149-177 (1975); C. Tobin and Y. Joubert, Developmental Biology 146, 131-138 (1991); J. Antonio, J. D. Wilson and F. W. George, J Appl. Physiol. 87(6) 2016-2019 (1999)) the disclosures of which herein are included by reference.
Androgens have been identified as playing important roles in the maintenance and growth of many tissues in both animals and humans. Muscles, like the levator ani and bulbocavernosus, and sexual accessory organs, such as the prostate glands and seminal vesicles have high expression levels of the androgen receptor and are known to respond quickly to exogenous androgen addition or androgen deprivation through testicular ablation. Castration produces dramatic atrophy of muscle and sexual accessory organs; whereas the administration of exogenous androgens to the castrated animal results in effective hypertrophy of these muscles and sexual accessory organs. Although the levator ani muscle, also known as the dorsal bulbocavernosus, is not ‘true skeletal muscle’ and definitely sex-linked, it is reasonable to use this muscle to screen muscle anabolic activities of test compounds because of its androgen responsiveness and simplicity of removal.
Male Sprague-Dawley rats weighing 160-180 grams were used in the assay. The rats were singly caged upon receiving and throughout the study. Bilateral orchidectomies were performed in sterilized surgical conditions under isoflurane anesthesia. An anteroposterior incision was made in the scrotum. The testicles were exteriorized and the spermatic artery and vas deferens were ligated with 4.0 silk 0.5 cm proximal to the ligation site. The testicles then were removed by a surgical scissors distal to the ligation sites. The tissue stumps were returned to the scrotum, the scrotum and overlying skin were closed by a surgical stapler. The Sham-ORX rats underwent all procedures except ligation and scissors cutting. The rats were assigned randomly into study groups 7-10 days post surgery based on the body weight.
Dihydrotestosterone (DHT) and the standard SARM, S-22, (J. Pharma. Exper. Thera. Vol 315, p. 230) were used as a positive control (1-10 mg/kg s.c. for DHT and 0.1 to 3 mg/kg p.o. for S-22). Compounds of the current invention were administered subcutaneously or orally for 4-28 days. Alternatively, some compounds of the current invention were administered subcutaneously or orally for 7-49 days. The rats were weighed daily and doses were adjusted accordingly. The general well being of the animal was monitored throughout the course of the study.
At the end of the study, the rats were euthanized in a CO2 chamber. The ventral prostate glands (VP), seminal vesicles (SV), levator ani muscle (LA) and bulbocavernosus (BC) were carefully dissected. The tissues were blotted dry; the weights were recorded, and then saved for histological and molecular analysis. The VP and SV weights serve as androgenic indicators and LA and BC as anabolic indicators. The ratio of anabolic to androgenic activities was used to evaluate the test compounds. Serum luteinizing hormone (LH), follicle stimulating hormone (FSH) and other potential serum markers of anabolic activities were also analyzed.
In general, preferred compounds show levator ani hypertrophy and very little prostate stimulation.
The compounds shown in Examples 9, 20, 26, 27, 33, 51, 52, and 53 were tested in the castrated male rate model essentially as described above. Test compounds were employed in free or salt form. […] Prostate sparing was defined as at least a 2:1 ratio of levator ani ED50 to prostate ED50. The ED50 is defined as 50% of the maximum response above the vehicle treated castrate level. […]

The target of assay [2] is androgen receptor (MBP-hAR-LBD, rat androgen ligand binding domain) (Rattus norvegicus (Rat), UniProt P15207). As to the kind of experiment: Androgen receptor fluorescence polarization assay. The settings on record: maximum of curve fit; max/min compared to absence of compound and 10^-5 M control compound. Here is the method:
The androgen receptor fluorescence polarization assay is used to investigate the interaction of the compounds with the androgen receptor.
Compounds are added to the 384 well black low-volume plates to a final volume of 0.1 μL. DTT and DMSO are added to the chilled assay buffer just before beginning assay. Sufficient Fluormone AL Red and AR-LBD are defrosted on ice and added to the chilled buffer in a glass tube to give a final concentration of 1 nM and 100 nM, (for current batch) respectively. A volume of 10 μL of the assay mix is added to compound plates with a multidrop. […] The plates are counted in a Discovery Analyst with suitable 535 nm excitation and 590 nm emission interference filters (Dichroic 561 nM). […] Test compounds are dissolved and diluted in DMSO. Compounds are assayed in singlicate, a four parameter curve fit of the following form being applied
[formula] where a is the minimum, b is the Hill slope, c is the IC50 and d is the maximum.
Data is presented as the mean pIC50 with the standard error of the mean of n experiments.
(In general: In fluorescence polarisation assays a small probe gives low polarisation when free and higher when bound to something large.)

This is an account of results in US11299457B2, “Chemical compounds” (GlaxoSmithKline Intellectual Property (No. 2) Limited, priority 2012, dated 2022).

Chain of androgen receptor (MBP-hAR-LBD, rat androgen ligand binding domain) (P15207 651-882): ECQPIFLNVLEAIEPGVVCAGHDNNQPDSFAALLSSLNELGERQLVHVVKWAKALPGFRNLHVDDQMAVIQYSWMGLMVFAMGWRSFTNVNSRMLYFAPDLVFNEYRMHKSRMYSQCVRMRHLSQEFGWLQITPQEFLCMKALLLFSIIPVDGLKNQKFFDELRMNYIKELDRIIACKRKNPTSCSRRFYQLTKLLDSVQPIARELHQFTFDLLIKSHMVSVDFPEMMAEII

As to `Cc1cc2c(C(F)(F)F)c(C#N)ccc2n1C(C)CS(C)(=O)=O` (stereo not shown) [Example 9, 2-Methyl-1-(1-(methylsulfonyl)propan-2-yl)-4-(trifluoromethyl)-1H-indole-5-carbonitrile], in assay [1], the prostate sparing entry is given as “spared the prostate” and the levator ani hypertrophy result was “favorable levator ani hypertrophy”.

`C[C@H](n1ccc2c(C(F)(F)F)c(C#N)ccc21)C(C)(C)O` [Example 21, (S)-1-(3-Hydroxy-3-methylbutan-2-yl)-4-(trifluoromethyl)-1H-indole-5-carbonitrile]: the “% Max” value in assay [2] worked out at 100%.

`CC(CS(C)(=O)=O)n1ccc2c(C(F)(F)F)c(C#N)ccc21` (stereo not shown) [Example 26, 1-(1-(Methylsulfonyl)propan-2-yl)-4-(trifluoromethyl)-1H-indole-5-carbonitrile]: in assay [1], the prostate sparing result is listed as “spared the prostate” and the levator ani hypertrophy result is “favorable levator ani hypertrophy”.

Turning to `C[C@H](CS(C)(=O)=O)n1ccc2c(C(F)(F)F)c(C#N)ccc21` [Example 27, (R)-1-(1-(Methylsulfonyl)propan-2-yl)-4-(trifluoromethyl)-1H-indole-5-carbonitrile], in assay [1], the prostate sparing entry is “spared the prostate” and the levator ani hypertrophy entry is “favorable levator ani hypertrophy”.

For the compound `CC[C@H](c1cncc(C#N)c1)n1ccc2c(C#N)c(C#N)ccc21` [Example 51, (R)-1-(1-(5-Cyanopyridin-3-yl)propyl)-1H-indole-4,5-dicarbonitrile], in assay [1], the prostate sparing entry is reported as “spared the prostate” and the levator ani hypertrophy entry is “favorable levator ani hypertrophy”.

For `C[C@@H](n1ccc2c(Cl)c(C#N)ccc21)[C@](C)(O)C(F)(F)F` [Example 52, 4-Chloro-1-((2R,3S)-4,4,4-trifluoro-3-hydroxy-3-methylbutan-2-yl)-1H-indole-5-carbonitrile], in assay [1], the prostate sparing result is “spared the prostate” and the levator ani hypertrophy entry is listed as “favorable levator ani hypertrophy”.

Turning to `C[C@@H](n1ccc2c(C(F)(F)F)c(C#N)ccc21)[C@](C)(O)C(F)(F)F` [Example 53, 1-((2R,3S)-4,4,4-Trifluoro-3-hydroxy-3-methylbutan-2-yl)-4-(trifluoromethyl)-1H-indole-5-carbonitrile], in assay [1], the prostate sparing result was “spared the prostate” and the levator ani hypertrophy result was “favorable levator ani hypertrophy”.
